# Earlier results as cited in US9433208B2, “Crop oil concentrate adjuvants containing amine surfactants” (Huntsman Petrochemical LLC, priority 2004, dated 2016).
# Where two headings read alike, the source gives them in different places.
smiles,measurement,setting,value
"CNC(=O)CSP(=S)(OC)OC [Cygon, dimethoate]",time to lose 50 percent of its pest control power,mixed in water of pH 9,48 min
same,time to lose 50 percent of its pest control power,pH of 6,720 min
